Columns and labels:
satellite stem cells = assay: EDL myofiber culture, satellite stem cell divisions (Myf5-Cre/R26R-eYFP, wild type); format: cell-based, mouse; conditions: for Average number of asymmetric divisons/fiber / Proportion of YFP- divisions that are asymmetric divisions: WT myofibers, 42 h of culture
Experimental: EGFR Signaling Regulates Asymmetric Satellite Stem Cell Divisions. To assess the role of EGFR in asymmetric division, the inventors cultured satellite cells in myofibers isolated from Extensor digitorum longus (EDL) muscles from Myf5-Cre/R26R-eYFP mice and performed both loss-of-function and gain-of-function experiments. Isolated myofibers were first cultured for 42 h with and without treatment with the Lapatinib, a specific inhibitor of EGFR signaling.
(§1) EDL fiber Culture and siRNA Transfection. Myofiber culture was performed as described in Dumont, N. A., et al. “Dystrophin expression in muscle stem cells regulates their polarity and asymmetric division.” Nat. Med. (2015) 21:1455-63, which is incorporated herein by reference. Briefly, EDL were carefully dissected and incubated in DMEM with 2% L-glutamine, 4.5% glucose, and 110 mg/mL sodium pyruvate (Gibco) containing 0.2% collagenase I (Sigma) for 45 min. Myofibers were isolated using gentle trituration with a glass pipet. Myofibers were cultured for 36, 42, or 72 h in DMEM containing 20% FBS (Wisent), 1% chick embryo extract (MP Biomedicals), and 2.5 ng/ml bFGF (Cedarlane). For pharmacological inhibition, Lapatinib ditosylate (1 mM in DMSO; Santa
(§2) Cruz Biotechnology), PTP1b inhibitor CAS 765317-72-4 (10 mM in DMSO; Santa Cruz Biotechnologies) was added to the culture medium for a final concentration of 1 μM or 10 μM, respectively; equal dilution of DMSO was used as vehicle control.
Transfection of satellite cells on myofibers was performed using lipofectamine RNAimax (Life Technologies) and validated Smartpool siRNAs for EGFR, Aurka, or scramble (SCR) (Dharmacon). Two transfections were performed at 4 h and 16 h after isolation of the myofibers as described in Le Grand, et al. (2009) Wnt7a activates the planar cell polarity pathway to drive the symmetric expansion of satellite stem cells. Cell Stem Cell 4, pp 535-547, which is incorporated herein by reference. Knockdown efficiencies of the siRNA were validated in myoblasts by western blot and qRT-PCR.

[1] = system: dystrophin-deficient satellite stem cells; assay: EDL myofiber culture, satellite stem cell divisions (mdx Myf5-Cre/R26R-eYFP); format: cell-based, mouse; conditions: for Average number of asymmetric divisons/fiber / Proportion of YFP- divisions that are asymmetric divisions: mdx myofibers, 42 h of culture
Experimental: as §1, §2

[2] = system: regenerating mdx TA muscles; assay: Cardiotoxin-induced injury of TA muscle in mdx mice, intramuscular treatment; format: in vivo, mouse
Excerpt: Previously, the inventors observed that dystrophin- or Dag1-deficient muscles generate reduced numbers of Pax7-expressing and Myog-expressing cells following CTX-injury.
PTP1b inhibitor was concurrently administered with cardiotoxin into mdx TA muscles and supplemented again 2 days after the injury (FIG. 13A). To assess the muscle stem cell function after injury and the regenerative capacity of the treated mdx muscles, the inventors examined the histology of the regenerating muscles 10 days post cardiotoxin injection. Whereas the control vehicle treated muscles still contained large areas of necrotic fibers (msIgG+), the muscles treated with PTP1b inhibitors were better regenerated as evidenced by the presence of 50% […] Myh3-expressing myofibers (FIG. 13B). […] These findings are consistent with PTP1b inhibition inducing an increase in EGFR signaling and accelerated de novo myofiber formation in regenerating mdx muscles (FIG. 14).
Electroporation and Cardiotoxin Injury. Intramuscular (i.m.) cardiotoxin injections (Latoxan, 50 μl of 10 μM solution in saline) were injected directly into the right TA muscle through the skin under general anesthesia. For pharmacological inhibition, Lapatinib ditosylate (1 mM in DMSO; Santa Cruz Biotechnology), the PTP1b inhibitor CAS 765317-72-4 (10 mM in DMSO; Santa Cruz Biotechnologies) was mixed into the cardiotoxin solution for a final concentration of 1 μM or 20 μM, respectively; equal dilution of DMSO was used as vehicle control. Supplemental injection of inhibitors (20 μL of 2.5 μM of Lapatibin or 50 μM of PTP1b inhibitor diluted in saline) was performed 2 days after cardiotoxin injection.
Muscle samples were embedded in OCT embedding compound and frozen in liquid nitrogen cooled isopentane and cryosectioned in 12-μm slices. Cross-sections were washed once with PBS and fixed in 2% PFA 10 min, permeabilized with 0.1% Triton X-100/0.15 M Glycine/PBS for 10 min and extensively washed with PBS. Samples were blocked using M.O.M. Blocking reagent (Vector) for 2 h followed by additional blocking in 5% NGS/2% BSA at 4° C. over night. Primary antibodies were applied in blocking at 4° C. over night. Samples were washed extensively in PBS and secondary antibodies were applied in PBS (Alexa Flour 546, 647) for 1 h at room temperature. Following PBS washes, cross-sections were counterstained with DAPI ([…]) for 10 min and mounted with Permaflour (Fisher).
Histological Analysis of Muscle Sections. For Fiber type analysis, non-fixed samples were washed with PBS and blocked in 10% normal goat serum (NGS) for 1 hr at room temperature. Primary antibodies were applied in 10% NGS for 2 h at room temperature. Sections were washed extensively with PBS and secondary antibodies were applied in PBS for 1 h at room temperature. Following PBS washes, sections were counterstained with DAPI for 10 min and mounted with Permaflour. Antibodies were as follows: mouse anti-MyH3 (clone F1.652, DSHB), mouse anti-MyH4 (clone BF-F3, DSHB).
For analysis of myofiber Feret's diameter, non-fixed samples were washed with PBS and stained with Wheat Germ Agglutinin Alexa 647 conjugate (Fisher) for 1 h at room temperature. Samples were washed once with PBS and counterstained with DAPI. Samples were washed with PBS and mounted with Permaflour. Images were taken immediately following staining. Minimum fiber Feret measurement was performed using the SMASH software in MATLAB 2015a as described in Smith, L. R., and Barton, E. R. (2014) SMASH—semi-automatic muscle analysis using segmentation of histology: a MATLAB application. Skelet. Muscle 4, 21, which is incorporated herein by reference. Samples with significant staining artifacts were excluded from automated analyses.

[3] = 42 h culture, recombinant EGF vs vehicle, FIG. 4A

Compound	Average number of asymmetric divisons/fiber (satellite stem cells)	Proportion of YFP- divisions that are asymmetric divisions (satellite stem cells)	Average number of asymmetric divisons/fiber [1]	Proportion of YFP- divisions that are asymmetric divisions [1]	fewer Myh3-expressing myofibers vs vehicle ([2]; PTP1b inhibitor with cardiotoxin and again 2 days after, 10 days post injection, FIG. 13B)	increase in muscle mass compared to vehicle treated controls ([2]; PTP1b inhibitor, 10 days post cardiotoxin, FIG. 13C)	numbers of satellite cells (Pax7+) ([2]; PTP1b inhibitor, 10 days post cardiotoxin, FIG. 13F)	increase on average in Feret's diameters of myofibers compared to control muscles ([2]; PTP1b inhibitor, 10 days post cardiotoxin, FIGS. 13D and E)	increase in the rate of asymmetric satellite stem cell division (satellite stem cells; 42 h culture, recombinant EGF 100 ng/mL vs vehicle, FIG. 2A)	increase in asymmetric division, WT satellite cells (satellite stem cells; [3])	increase in the rate of asymmetric division, mdx satellite cells [1, 3]	increase in the absolute number of asymmetric satellite stem cell divisions, mdx ([1]; 42 h of myofiber culture, FIG. 4B)	increase in Pax7-expressing cells ([2]; 10 ng recombinant EGF IM at CTX injury and 2 d after, 10 days post injury, FIG. 5B)	increase in the numbers of Myog-expressing cells ([2]; 10 ng recombinant EGF IM at CTX injury and 2 d after, 10 days post injury, FIG. 5C)	Feret's diameter of regenerating myofibers ([2]; EGF-treated vs vehicle-injected controls, 10 days post injury)
CCc1oc2cc(S(=O)(=O)Nc3ccc(S(=O)(=O)Nc4nccs4)cc3)ccc2c1C(=O)c1cc(Br)c(O)c(Br)c1 [PTP1b inhibitor, 3-(3,5-dibromo-4-hydroxy-benzoyl)-2-ethyl-benzofuran-6-sulfonicacid-(4-(thiazol-2-ylsulfamyl)-phenyl)-amide, reference compound]	0.988	66.70%	0.463	33.33%	50%	14%	increased numbers of satellite cells	2 fold							
EGF: human recombinant EGF protein (Life Technologies), direct activator of the EGFR pathway	0.939	70.86%	0.436	34.60%					2.5 fold	29%	67%	2 fold	26%	50%	an increase in Feret's diameter
